From US20240059740A1, “CYCLIC PEPTIDES AND USES THEREOF” (PRE[…] INC., priority 2020, published 2024)
Residues, ends and D or L forms follow the SMILES beside them.

Tests used:
uPA = experiment: Casein-plasminogen zymography of conditioned media, uPA production; assay type: cell-based, human; conditions: for uPA production: compared to control containing no peptide
Description: To assess whether the peptide SEQ ID NO.1 impacted MMP-2, MMP-9 and uPA production Zymography was used.
Zymography is a technique for studying hydrolytic enzymes on the basis of substrate degradation. The in-gel zymography hydrolytic enzymes are separated by their molecular weights and detected by their ability to degrade a substrate. To detect the activity of MMP-2 and MMP-9 in various cell lines, conditioned media were collected in 3 independent experiments and analysed by gelatin zymography to quantify the level of gelatin digestion, which reflects MMP-2 and MMP-9 activity and production. Casein-Plasminogen zymography was conducted to determine the activity level of uPA in the conditioned medium from various cell lines. Active uPA converts plasminogen into plasmin which then digests casein, thus clear bands where digestion of casein have occurred indirectly represent uPA activity.
The effect of the peptides on matrix protease production was tested using in-gel zymography. If the substrate included in the gel is gelatin, the enzymes detected are gelatinases: MMP-2 and MMP-9 (the latter is often of low abundance). If the gel contains casein and plasminogen, the enzymes tested are urokinase plasminogen activators (uPA); uPA is a therapeutic target in GBM.
An equal amount of protein from each sample was mixed with 5 μL of Laemmli buffer (0.01% Bromophenol Blue (W/V), 5% SDS (W/V), 22% glycerol (V/V), 14% 0.5 M Tris pH 6.8 (V/V)) and loaded onto a 10% polyacrylamide gel co-polymerized with 1 mg/ml of gelatin, and electrophoresed at 120 V for 2 hours on ice. The gel was incubated in […] solution (Triton X-100 2.5% (V/V), 1 M Tris pH 7.5 5% (V/V), 0.5 M CaCl2 1% (W/V) at room temperature overnight on an orbital shaker. The gel was incubated in a second solution for 3 hours at 37° C. The gel was then stained with Coomassie blue solution (Coomassie blue 0.25%, methanol 45%, acetic acid 10%) and destained in methanol 25% (V/V), acetic acid 10% (V/V) destaining solution until clear bands against the dark background appeared around 72 kDa and 95 kDa, representing MMP-2 and MMP-9 activity, respectively. Clear bands around 50 kDa appeared against the dark background representing uPA activity. The gels were scanned, and uPA, MMP-2 and MMP-9 were quantified by densitometry using NIH Image J software.
SEQ ID NO.1 was compared to a control containing no peptide to evaluate whether the peptide can reduce the production of matrix proteinases. […] This could be confirmed using a MMP-9 quantification kit, and altered production by a transcriptional mechanism can be unveiled using qRT-PCR.

081024 cells = experiment: BME cell invasion assay, 081024; assay type: cell-based, human; conditions: 24 h
Method: To assess whether the ability of SEQ ID NO.1 to inhibit MMP-2 activity and, to a lesser extent, reduce the production of matrix proteinases and downregulate the expression of EMT markers, was of functional consequence in reducing the invasiveness of the GBM cells, the ability of the peptide was tested at the concentrations of 1, 10 and 100 μM (none of which are toxic to cells) to inhibit invasion of the GBM cells through a basement membrane. This assay, described in more detail below, is an in vitro surrogate for measurement of the in vivo invasion by tumour cells of their environment.
The cell invasion assay employs a simplified Boyden chamber-like design that consists of two chambers separated by a filter (an 8 μm polycarbonate (PC) membrane) coated with basement membrane or different extracellular matrix components. The cell suspension is placed in the top chamber and incubated in the presence of test media containing specific chemo-attractants in the bottom chamber. Cells migrate from the top chamber to the bottom of the filter by degrading the coating over the filter pores. Detection of cell invasion is quantified using Calcein AM. Cell dissociation/Calcein AM solution is placed in the bottom chamber to dissociate the migrating cells from the filter. Calcein AM is internalized by the cells, and intracellular-esterases cleave the aceto-methylester (AM) moiety. Free Calcein fluoresces brightly and is used to quantitate the number of cells that have invaded or migrated by comparison with a standard curve (In Vitro Technologies Pty Ltd, (https://lifescience.invitro.com.au/brands/r-and-d-systems/).
The filter was coated with PathClear® growth factor reduced BME. The selected peptides were applied to the cells in both upper and lower wells to make sure the concentration of peptides were the same and the chemoattractant was serum at a concentration of 2% (for adherent U87 & U251 cells) or growth factor mix required in the medium (for non- adherent, 081024 oncospheres).
Cell invasion was determined using CultureCoat® 96 Well Medium BME Cell Invasion assay. Briefly, the cells were pre-starved 24 h before harvest. Then seeding 25,000 per well of cell in the upper chamber with serum free medium together different concentration of peptide. The bottom chamber also added different concentration of peptides with 2% (V/V) serum for GBM adherent cells or growth factor mix for neurosphere cells as chemoattractant. After 24 h incubation, the invading cells were measured by Calcein AM and calculated based on standard curve.
The results are shown in Table 12, the results are expressed as % inhibition.

SMILES: CC(C)C[C@@H]1NC(=O)[C@H](C)NC(=O)[C@@H](NC(=O)[C@@H]2CCCN2C(=O)[C@@H](N)CC(C)C)CSSC(C)(C)CNC(=O)CC[C@@H](C(=O)N[C@@H](CCCNC(=N)N)C(N)=O)NC(=O)[C@H](CC(=O)O)NC(=O)[C@H](CC(N)=O)NC1=O [SEQ ID NO: 1, Leu-Pro-c(SSA*-Ala-Leu-Asn-Asp-Glu)-Arg-NH2] (HELM PEPTIDE1{L.P.C.A.L.N.D.E.R.[am]}|CHEM1{[CC(C)(CN[*:2])S[*:1]]}$PEPTIDE1,CHEM1,3:R3-1:R1|PEPTIDE1,CHEM1,8:R3-1:R2$$$V2.0; N-terminus assumed)
- uPA production (uPA; 081024 cells): 96.43 ± 16.6
- uPA production (uPA; U87 cells): 89.03 ± 5.98
- uPA production (uPA; U251 cells): 79.92 ± 8.86
- production of uPA (overall, in words) (uPA; overall, all cell lines, cell-conditioned media): did not decrease
- Invasion Inhibition Index (%) (081024 cells; 1 μM, listed as SEQ ID NO. 1): 39.9%
- Invasion Inhibition Index (%) (081024 cells; 1 μM, listed as SEQ ID NO.1): fairly comparable to that of Chlorotoxin
- Invasion Inhibition Index (%) (081024 cells; 10 μM): 50.8%
- Invasion Inhibition Index (%) (081024 cells; 100 μM): 58.3%
